Experiments:
Format in all cases: in vivo
[1] = test system: SAGITTARIA PYGMAEA, L.; experiment: Preemergence weed control under flooded paddy conditions, SAGPY (Arrowhead (Pygmaea)); conditions: preemergence weeds, rated three to four weeks after treatment
Outline: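 Seeds or propagules were planted 0.5 cm deep in silt loam, with flood water held at 1.5 to 3 cm. Compound in 50/50 aqueous/acetone was pipetted into the flood water at about 0.5, 0.25, 0.125 and 0.063 kg/ha. Injury was rated visually on a 0-9 scale against a control 3-4 weeks after treatment.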

[2] = test system: ORYZA SATIVA, L. TEBONNET; experiment: Rice tolerance to post-transplant applications under flooded paddy conditions, ORYSAT (Rice, Tebonnet); conditions: post-transplant rice, rated three to four weeks after treatment;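 note: applied to flooded soil surface three days after transplanting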
Outline: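 Two ten-day-old Tebonnet rice seedlings transplanted into silt loam, flooded 1.5–3 cm; three days later the water surface treated with compounds in acetone/water at about 0.5, 0.25, 0.125 and 0.063 kg/ha. Visual 0–9 injury rating versus control after 3–4 weeks in greenhouse.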

[3] = test system: IPOMOEA SPP.; experiment: Preemergence herbicidal evaluation, IPOSS (Morningglory spp.); conditions: four to five weeks after treatment
Outline: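 Seeds of morningglory (Ipomoea spp.) were mixed with potting soil and sown on roughly one inch of soil in pint cups for a preemergence herbicide test. The cups were put on greenhouse benches, watered, and maintained by standard greenhouse practice. Four to five weeks after treatment each cup was scored visually on a 0-9 scale against a control.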

[4] = test system: SETARIA VIRIDIS, (L) BEAU; experiment: Preemergence herbicidal evaluation, SETVI (Foxtail, Green); conditions: four to five weeks after treatment
Excerpt: Results of herbicide evaluation are expressed on a rating scale (0-9). The scale is based upon a visual observation of plant stand, vigor, malformation, size, chlorosis and overall plant appearance as compared with a control.
The preemergence herbicidal activity of the test compounds of the present invention is exemplified by the following tests in which the seeds of a variety of monocotyledonous and dicotyledonous plants are separately mixed with potting soil and planted on top of approximately one inch of soil in separate pint cups. […] The treated cups are then placed on greenhouse benches, watered and cared for in accordance with conventional greenhouse procedures. From four to five weeks after treatment, the tests are terminated and each cup is examined and rated according to the rating system provided in Example 40.
The compounds evaluated are reported by compound number given in Example 40.

[5] = test system: ECHINOCHLOA CRUS-GALLI, (L) BEAU; experiment: Preemergence herbicidal evaluation, ECHCG (Barnyardgrass); conditions: four to five weeks after treatment
Outline: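 Barnyardgrass seeds were mixed with potting soil and planted on about one inch of soil in pint cups for preemergence testing. Treated cups were kept on greenhouse benches, watered and maintained by standard greenhouse practice. After four to five weeks, each cup was visually rated on a 0-9 scale against an untreated control.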

[6] = test system: ORYZA SATIVA, L. TEBONNET; experiment: Preemergence herbicidal evaluation, ORYSAT (Rice, Tebonnet); conditions: four to five weeks after treatment
Outline: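 Seeds of rice (Oryza sativa, Tebonnet) were mixed with potting soil and sown on about one inch of soil in pint cups, then treated preemergence. Cups sat on greenhouse benches, watered and tended by standard greenhouse practice. Four to five weeks after treatment, plants were visually scored on a 0-9 scale relative to a control.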

[7] = test system: CHENOPODIUM ALBUM, L.; experiment: Postemergence herbicidal evaluation, CHEAL (Lambsquarters, Common); conditions: rated four to five weeks after treatment, averaged
Outline: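 Seedlings of common lambsquarters (Chenopodium album) were raised in jiffy flats for roughly two weeks, then sprayed postemergence through a nozzle at 40 psi with test compound dispersed in 50/50 acetone/water containing 0.5% TWEEN®20 surfactant. Plants were kept on greenhouse benches under standard care and rated visually on a 0-9 scale versus controls.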

[8] = test system: TRITICUM AESTIVUM, CV. APOLLO; experiment: Preemergence herbicidal evaluation, TRZAWO (Wheat, Winter, CV. APOLLO); conditions: four to five weeks after treatment
Outline: (§1)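 First, seeds in potting soil are sown atop soil in cups. Next, the surface is sprayed with test compound in aqueous acetone at roughly 0.125 to 0.50 kg per hectare. After four to five weeks of greenhouse care, each cup is scored 0-9 against a control.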

[9] = test system: ZEA MAYS L.; experiment: Preemergence herbicidal evaluation, ZEAMX (Corn, Field); conditions: four to five weeks after treatment
Outline: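 Corn (Zea mays) seeds were mixed with potting soil and planted on about one inch of soil in pint cups, then treated preemergence. Cups were kept on greenhouse benches, watered and maintained conventionally, and after four to five weeks were visually rated on a 0-9 scale versus an untreated control.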

[10] = test system: AMBROSIA ARTEMISIIFOLIA, L.; experiment: Preemergence herbicidal evaluation, AMBEL (Ragweed, Common); conditions: four to five weeks after treatment
Outline: as §1

[11] = test system: CHENOPODIUM ALBUM, L.; experiment: Preemergence herbicidal evaluation, CHEAL (Lambsquarters, Common); conditions: four to five weeks after treatment
Outline: as §1

[12] = test system: GLYCINE MAX(L) MERR. CV. WILLIAMS; experiment: Preemergence herbicidal evaluation, GLXMAW (Soybean, Williams); conditions: four to five weeks after treatment
Outline: as §1

[13] = test system: ABUTILON THEOPHRASTI, MEDIC.; experiment: Preemergence herbicidal evaluation, ABUTH (Velvetleaf); conditions: four to five weeks after treatment
Outline: as §1

Work on `CCOC(=O)Cn1c(=O)n(CC(=O)OC)c(=O)n(-c2cc(Oc3c(F)cc(C(F)(F)F)cc3Cl)ccc2C#N)c1=O` [Compound 12, 1-Ethyl methyl 5-{5-[(2-chloro-α,α,α,6-tetrafluoro-p-tolyl)oxy]-2-cyanophenyl}-dihydro-2,4,6-trioxo-s-triazine-1,3(2H,4H)-diacetate] yielded an SAGPY herbicidal rating ([1]; Rate 0.063 kg/ha) of 0.0, an SAGPY herbicidal rating ([1]; Rate 0.125 kg/ha) of 0.0 and an SAGPY herbicidal rating ([1]; Rate 0.250 kg/ha) of 0.0. The SAGPY herbicidal rating ([1]; Rate 0.500 kg/ha) was 0.0, the “ORYSAT herbicidal rating (rice tolerance)” value (“ORYSAT herbicidal rating” below) ([2]; Rate 0.063 kg/ha) was 0.0 and the “ORYSAT herbicidal rating” value ([2]; Rate 0.125 kg/ha) was 0.0. The “ORYSAT herbicidal rating” value ([2]; Rate 0.250 kg/ha) was 0.0, the “ORYSAT herbicidal rating” value ([2]; Rate 0.500 kg/ha) was 1.0 and the IPOSS rating ([3]; Rate 0.125 kg/ha) was 0.0. The IPOSS rating ([3]; Rate 0.250 kg/ha) was 0.0, the IPOSS rating ([3]; Rate 0.500 kg/ha) was 0.0 and the SETVI rating ([4]; Rate 0.125 kg/ha) was 0.0. The SETVI rating ([4]; Rate 0.250 kg/ha) was 0.0, the SETVI rating ([4]; Rate 0.500 kg/ha) was 0.0 and the ECHCG rating ([5]; Rate 0.125 kg/ha) was 0.0. It also gave an ECHCG rating ([5]; Rate 0.250 kg/ha) of 0.0, an ECHCG rating ([5]; Rate 0.500 kg/ha) of 0.0 and an ORYSAT rating ([6]; Rate 0.125 kg/ha) of 0.0. The ORYSAT rating ([6]; Rate 0.250 kg/ha) was 0.0, the ORYSAT rating ([6]; Rate 0.500 kg/ha) was 0.0 and the “CHEAL, herbicide rating (0-9)” value ([7]; Rate 0.125 kg/ha) was 9.0. The “CHEAL, herbicide rating (0-9)” value ([7]; Rate 0.250 kg/ha) was 9.0, the “CHEAL, herbicide rating (0-9)” value ([7]; Rate 0.500 kg/ha) was 9.0 and the TRZAWO rating ([8]; Rate 0.125 kg/ha) was 0.0. The TRZAWO rating ([8]; Rate 0.250 kg/ha) was 0.0, the TRZAWO rating ([8]; Rate 0.500 kg/ha) was 0.0 and the ZEAMX rating ([9]; Rate 0.125 kg/ha) was 0.0. It also gave a ZEAMX rating ([9]; Rate 0.250 kg/ha) of 0.0, a ZEAMX rating ([9]; Rate 0.500 kg/ha) of 0.0 and an AMBEL rating ([10]; Rate 0.125 kg/ha) of 0.0. For the same compound, the AMBEL rating ([10]; Rate 0.250 kg/ha) was 0.0, the AMBEL rating ([10]; Rate 0.500 kg/ha) was 0.0 and the CHEAL rating ([11]; Rate 0.125 kg/ha) was 0.0. It also gave a CHEAL rating ([11]; Rate 0.250 kg/ha) of 0.0, a CHEAL rating ([11]; Rate 0.500 kg/ha) of 0.0 and a GLXMAW rating ([12]; Rate 0.125 kg/ha) of 0.0. For the same compound, the GLXMAW rating ([12]; Rate 0.250 kg/ha) was 0.0, the GLXMAW rating ([12]; Rate 0.500 kg/ha) was 0.0 and the ABUTH rating ([13]; Rate 0.125 kg/ha) was 0.0. For the same compound, the ABUTH rating ([13]; Rate 0.250 kg/ha) was 0.0 and the ABUTH rating ([13]; Rate 0.500 kg/ha) was 0.0.
